ChEMBL document CHEMBL1149858, “Degradation-promoters of cellular inhibitor of apoptosis protein 1 based on bestatin and actinonin” (Bioorg Med Chem, 2008)
Activity calls are given as the source filed them. The rule behind the calls is not given here.

Assays:
[1] = biological target: Baculoviral IAP repeat-containing protein 2 (Homo sapiens, UniProt Q13490); assay: Promotion of flag-tagged cIAP1 degradation in human HT1080 cells assessed as decrease in cIAPI production after 3 hrs; type: cell-based, HT-1080
Baculoviral IAP repeat-containing protein 2, sequence (Q13490 whole entry): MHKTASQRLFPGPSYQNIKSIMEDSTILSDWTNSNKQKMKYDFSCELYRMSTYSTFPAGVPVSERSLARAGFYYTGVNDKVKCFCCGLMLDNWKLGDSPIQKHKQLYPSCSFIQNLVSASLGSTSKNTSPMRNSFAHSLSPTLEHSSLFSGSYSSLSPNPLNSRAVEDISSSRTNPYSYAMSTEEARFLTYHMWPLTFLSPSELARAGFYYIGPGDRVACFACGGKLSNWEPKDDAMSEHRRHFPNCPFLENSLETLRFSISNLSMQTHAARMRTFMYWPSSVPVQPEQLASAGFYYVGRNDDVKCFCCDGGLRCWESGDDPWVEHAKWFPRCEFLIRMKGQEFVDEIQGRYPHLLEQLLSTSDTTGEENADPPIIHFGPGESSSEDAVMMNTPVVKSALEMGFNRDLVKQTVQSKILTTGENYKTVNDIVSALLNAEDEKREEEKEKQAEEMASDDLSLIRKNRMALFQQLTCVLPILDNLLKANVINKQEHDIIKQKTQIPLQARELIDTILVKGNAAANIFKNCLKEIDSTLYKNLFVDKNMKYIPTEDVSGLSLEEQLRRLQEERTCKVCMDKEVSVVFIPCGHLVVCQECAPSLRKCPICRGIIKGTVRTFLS

[2] = tested on: HT-1080; assay: Enhancement of cisplatin-induced apoptosis of human HT1080 cells at 10 uM; type: functional, cell-based
[3] = tested on: HT-1080; assay: Enhancement of camptothecin-induced apoptosis of human HT1080 cells at 10 uM; type: functional, cell-based
[4] = tested on: HT-1080; assay: Enhancement of etoposide-induced apoptosis of human HT1080 cells at 10 uM; type: functional, cell-based
[5] = tested on: HT-1080; assay: Enhancement of anti-Fas antibody CH11-induced apoptosis of human HT1080 cells at 30 uM after 24 hrs; type: functional, cell-based
[6] = tested on: HT-1080; assay: Enhancement of actinomycin D-induced apoptosis of human HT1080 cells at 10 uM; type: functional, cell-based

Compound	IC50 [1] [µM]	Activity ([1]; HT-1080)	Activity [2]	Activity [3]	Activity [4]	Activity [5]	Activity [6]
CCCCC[C@H](CC(=O)NO)C(=O)N[C@H](C(=O)OC)C(C)(C)C	> 20						
COC(=O)[C@H](CC(C)C)NC(=O)[C@H](N)CC(=O)NO		inactive					
COC(=O)[C@H](CC(C)C)NC(=O)[C@@H](O)[C@H](N)Cc1ccccc1			Active	Active	Active	Active	Active
CCCCC[C@H](CC(=O)NO)C(=O)N[C@@H](C)C(=O)OC			Active	Active	Active		Active
